Several values for one entry are separate records, joined by “and”; a condition that tells them apart may be missing. Equal values may be shown once.
Test system: SARS-CoV-2 B.1.1.7 (alpha variant)
Type: cell-based
Settings: 3 µM

## N#C[C@@]1(c2ccc3c(N)ncnn23)O[C@H](CO)[C@@H](O)[C@H]1O [GS-441524]
  Log vRNA: 4 and 4.2 and 4.3

Reference: PMC8847371 (Nature Communications, 2022)
